Test [1] deals with mono-methyl arginine in RKO cells. Description: RKO methylation assay, In Cell Western for mono-methyl arginine and DNA content. It is filed as cell-based. The settings on record: Homo sapiens; In Cell Western, RKO cells, 72 hours, percent activation of mono-methyl arginine signal; read-out: EC30. From the text: RKO adherent cells were purchased from ATCC (American Type Culture Collection), Manassas, Va., USA. DMEM/Glutamax medium, penicillin-streptomycin, heat inactivated fetal bovine serum, 0.05% trypsin and D-PBS were purchased from Life Technologies, Grand Island, N.Y., USA. Odyssey blocking buffer, 800CW goat anti-rabbit IgG (H+L) antibody, and Licor Odyssey infrared scanner were purchased from Licor Biosciences, Lincoln, Nebr., USA. Mono-methyl arginine antibody was purchased from Cell Signaling Technology, Danvers, Mass., USA. Methanol was purchased from VWR, Franklin, Mass., USA. 10% Tween 20 was purchased from KPL, Inc., Gaithersburg, Md., USA. […] was purchased from Biostatus Limited, Leicestershire, UK.
RKO adherent cells were maintained in growth medium (DMEM/Glutamax medium supplemented with 10% v/v heat inactivated fetal bovine serum and 100 units/mL penicillin-streptomycin) and cultured at 37° C. under 5% CO2
Cell Treatment, in Cell Western (ICW) for Detection of Mono-Methyl Arginine and DNA Content. […] Compound (100 nL) from a 96-well source plate was added directly to 384 well cell plate. Plates were incubated at 37° C., 5% CO2 for 72 hours. After three days of incubation, plates were brought to room temperature outside of the incubator for ten minutes and blotted on paper towels to remove cell media. 50 μL of ice cold 100% methanol was added directly to each well and incubated for 30 min at room temperature. After 30 min, plates were transferred to a Biotek EL406 plate washer and washed 2 times with 100 μL per well of wash buffer (1×PBS). Next 60 μL per well of Odyssey blocking buffer (Odyssey Buffer with 0.1% Tween 20 (v/v)) were added to each plate and incubated 1 hour at room temperature. Blocking buffer was removed and 20 μL per well of primary antibody was added (mono-methyl arginine diluted 1:200 in Odyssey buffer with 0.1% Tween 20 (v/v)) and plates were incubated overnight (16 hours) at 4° C. Plates were washed 5 times with 100 μL per well of wash buffer. […] The plates were washed 5 times with 100 μL per well wash buffer then 2 times with 100 μL per well of water. Plates were allowed to dry at room temperature then imaged on the Licor Odyssey machine which measures integrated intensity at 700 nm and 800 nm wavelengths. Both 700 and 800 channels were scanned.
Calculations: First, the ratio for each well was determined by:
Each plate included fourteen control wells of DMSO only treatment (minimum activation) as well as fourteen control wells for maximum activation treated with 20 μM of a reference compound. The average of the ratio values for each control type was calculated and used to determine the percent activation for each test well in the plate. Reference compound was serially diluted three-fold in DMSO for a total of nine test concentrations, beginning at 20 μM. Percent activation was determined and EC30 curves were generated using triplicate wells per concentration of compound.

A further test concerns the target T1, Full-length human PRMT6 (Homo sapiens, UniProt Q96LA8).
T1 construct: Flag-PRMT6-His was eluted with 200 ug/ml FLAG peptide in the same buffer; made in house; host or cells: HEK 293F cells (BacMam virus, pFastBacMam)
Description: PRMT6 biochemical assay (3H-SAM Flashplate, peptide substrate). From the text: General Materials. S-adenosylmethionine (SAM), S-adenosylhomocysteine (SAH), bicine, Tween20, dimethylsulfoxide (DMSO), bovine skin gelatin (BSG), sodium butyrate and Tris(2-carboxyethyl)phosphine hydrochloride solution (TCEP) were purchased from Sigma-Aldrich at the highest level of purity possible. ^3H-SAM was purchase from American Radiolabeled Chemicals with a specific activity of 80 Ci/mmol. 384-well streptavidin Flashplates were purchased from PerkinElmer.
Substrates. Peptide representative of human histone H4 residues 36-50 was synthesized with an N-terminal linker-affinity tag motif and a C-terminal amide cap by 21st Century Biochemicals.
The amplified gene was subcloned into pFastBacMam (Viva Biotech).
Protein Expression. Recombinant baculovirus were generated according to Bac-to-Bac kit instructions (Life Technologies). […] Infections were carried out at 37° C. for 48 hours, harvested by centrifugation, and stored at −80° C. for purification.
Protein Purification. […] Column was washed with 20 mM imidazole in the same buffer and Flag-PRMT6-His was eluted with 150 mM imidazole. Pooled fractions were dialysed against buffer Ni-A and further purified by anti-flag M2 affinity chromatography. Flag-PRMT6-His was eluted with 200 ug/ml FLAG peptide in the same buffer. Pooled fractions were dialysed in 20 mM Tris, 150 mM NaCl, 10% glycerol and 5 mM β-mercaptoethanol, pH 7.8.
(§1) General Procedure for PRMT6 Enzyme Assays on Peptide Substrates. The assays were all performed in a buffer consisting of 20 mM Bicine (pH=7.6), 1 mM TCEP, 0.005% BSG, and 0.002% Tween 20, prepared on the day of use. […] DMSO (1 ul) was added to Columns 11, 12, 23, 24, rows A-H for the maximum signal control and 1 ul of SAH, a known product and inhibitor of PRMT6, was added to columns 11, 12, 23, 24, rows I-P for the minimum signal control. A cocktail (40 ul) containing the PRMT6 enzyme was added by Multidrop Combi (Thermo-Fisher). The compounds were allowed to incubate with PRMT6 for 30 min at room temperature, then a cocktail (10 ul) containing SAM and peptide was added to initiate the reaction (final volume=51 ul). […] The assays were stopped by the addition of non-radiolabeled SAM (10 ul) to a final concentration of 400 uM, which dilutes the ^3H-SAM to a level where its incorporation into the peptide substrate is no longer detectable. 50 ul of the reaction in the 384-well polypropylene plate was then transferred to a 384-well Flashplate and the biotinylated peptides were allowed to bind to the streptavidin surface for at least 1 hour before being washed once with 0.1% Tween20 in a Biotek ELx405 plate washer. The plates were then read in a PerkinElmer TopCount plate reader to measure the quantity of ^3H-labeled peptide bound to the Flashplate surface, measured as disintegrations per minute (dpm) or alternatively, referred to as counts per minute (cpm).
(§2) Where dpm=disintegrations per minute, cmpd=signal in assay well, and min and max are the respective minimum and maximum signal controls.
(§3) Where top and bottom are the normally allowed to float, but may be fixed at 100 or 0 respectively in a 3-parameter fit. The Hill Coefficient normally allowed to float but may also be fixed at 1 in a 3-parameter fit. Y is the % inhibition and X is the compound concentration.

Test [2] concerns the target T2, Full-length human PRMT1 isoform 1 (Homo sapiens, UniProt Q99873).
T2 construct: GST-tagged PRMT1; made in house; host or cells: High Five insect cells (baculovirus, pFastBacI)
The test is described as follows: PRMT1 biochemical assay (3H-SAM Flashplate, peptide substrate).
From the text: General Materials. S-adenosylmethionine (SAM), S-adenosylhomocysteine (SAH), bicine, Tween20, dimethylsulfoxide (DMSO), bovine skin gelatin (BSG), and Tris(2-carboxyethyl)phosphine hydrochloride solution (TCEP) were purchased from Sigma-Aldrich at the highest level of purity possible. ^3H-SAM was purchase from American Radiolabeled Chemicals with a specific activity of 80 Ci/mmol. 384-well streptavidin Flashplates were purchased from PerkinElmer.
Protein Expression. Recombinant baculovirus were generated according to Bac-to-Bac kit instructions (Life Technologies). […] Infections were carried out at 27° C. for 48 hours, harvested by centrifugation, and stored at −80° C. for purification.
Protein Purification. […] GST-tagged PRMT1 was eluted with 50 mM Tris, 2 mM glutathione, pH 7.8, dialysed in buffer A and concentrated to 1 mg/mL.
as §1, with “PRMT1” for “PRMT6”, “PRMT1,” for “PRMT6,”, “300” for “400”
as §2, §3

By EC30 is commonly meant the concentration needed for an effect of 30%. A word on the IC50: it is the concentration needed to halve the response being measured. Read a high IC50 as weaker potency in that assay.

T2 sequence (Q99873 with tags, fused parts or gaps): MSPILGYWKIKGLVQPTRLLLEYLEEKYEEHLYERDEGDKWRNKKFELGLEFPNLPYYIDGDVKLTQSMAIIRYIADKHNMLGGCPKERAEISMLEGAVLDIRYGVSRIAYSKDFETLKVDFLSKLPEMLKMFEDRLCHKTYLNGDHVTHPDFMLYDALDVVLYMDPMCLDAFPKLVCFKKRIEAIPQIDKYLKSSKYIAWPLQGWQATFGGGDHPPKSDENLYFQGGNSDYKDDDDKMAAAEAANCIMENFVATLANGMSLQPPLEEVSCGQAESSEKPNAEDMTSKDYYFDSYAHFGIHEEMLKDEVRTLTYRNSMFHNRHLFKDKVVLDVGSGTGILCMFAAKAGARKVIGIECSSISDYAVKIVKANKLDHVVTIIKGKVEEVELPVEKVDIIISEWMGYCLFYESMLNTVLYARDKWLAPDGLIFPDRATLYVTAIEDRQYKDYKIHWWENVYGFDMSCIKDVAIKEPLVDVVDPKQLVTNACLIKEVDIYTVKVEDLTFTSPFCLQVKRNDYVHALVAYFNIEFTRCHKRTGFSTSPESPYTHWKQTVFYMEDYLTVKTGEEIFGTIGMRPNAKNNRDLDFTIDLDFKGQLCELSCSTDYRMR
T1 sequence (Q96LA8 with tags, fused parts or gaps): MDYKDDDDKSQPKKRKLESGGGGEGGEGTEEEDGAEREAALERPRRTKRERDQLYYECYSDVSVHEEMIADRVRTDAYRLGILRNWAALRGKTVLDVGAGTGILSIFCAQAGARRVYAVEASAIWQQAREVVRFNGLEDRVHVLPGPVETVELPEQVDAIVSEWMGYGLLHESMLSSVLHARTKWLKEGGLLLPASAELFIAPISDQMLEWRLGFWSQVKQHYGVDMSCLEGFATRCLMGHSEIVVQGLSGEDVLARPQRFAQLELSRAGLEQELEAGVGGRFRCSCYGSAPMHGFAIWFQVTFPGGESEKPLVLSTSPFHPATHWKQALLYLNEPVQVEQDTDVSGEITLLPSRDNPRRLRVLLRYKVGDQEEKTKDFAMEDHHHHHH

Consider `CNCCN(C)Cc1n[nH]cc1-c1ccc(Oc2ccccc2)c(C#N)c1` [Compound 234], for which the EC30 in test [1] was less than 3 µM. Moreover, the IC50 (on Full-length human PRMT6; in test [2]) was less than 0.1 µM each time.

On to `CC(C)Cc1cccc(-c2n[nH]cc2CN(C)CCN)c1` [Compound 235], for which the EC30 in test [1] was less than 3 µM. Also, the results for the IC50 (against Full-length human PRMT6; in test [2]) were 0.101 to 1 µM and less than 0.1 µM, respectively.

For `CNCCN(C)Cc1c[nH]nc1-c1ccc(OCCCO)cc1` [Compound 236], the EC30 in test [1] was less than 3 µM. Moreover, the IC50 (on Full-length human PRMT6; in test [2]) was less than 0.1 µM each time.

`CNCCN(C)Cc1c[nH]nc1-c1ccc(Oc2ccccc2F)cc1` [Compound 237]: in test [1], the EC30 was less than 3 µM. Also, the IC50 (at Full-length human PRMT6; in test [2]) was less than 0.1 µM in each case.

As to `CNCCN(C)Cc1n[nH]cc1-c1ccc(Oc2cccc(OC)c2)cc1` [Compound 239], the EC30 in test [1] is less than 3 µM. Further, the IC50 (against Full-length human PRMT6; in test [2]) was less than 0.1 µM each time.

Consider `CNCCN(C)Cc1n[nH]cc1-c1ccc(Oc2ccccc2)c(C(=O)NC)c1` [Compound 240], for which, in test [1], the EC30 lay within 3.01 to 12 µM. The IC50 (at Full-length human PRMT6; in test [2]) was less than 0.1 µM throughout.

Regarding `CNCCN(C)Cc1n[nH]cc1-c1ccc(Oc2ccccc2)c(C(=O)N(C)C)c1` [Compound 241], the EC30 in test [1] lay within 3.01 to 12 µM. For the same compound, the IC50 (on Full-length human PRMT6; in test [2]) was less than 0.1 µM each time.

Turning to `CNCCN(C)Cc1n[nH]cc1-c1cc(C(C)C)cc(C(C)C)c1` [Compound 242], the EC30 in test [1] was greater than 12 µM. The results for the IC50 (on Full-length human PRMT6; in test [2]) were 1.01 to 3 µM and 0.101 to 1 µM, respectively.

Consider `CNCCN(C)Cc1cn(Cc2ccncc2)nc1-c1ccc(OC(C)C)cc1` [Compound 245], for which the EC30 in test [1] is less than 3 µM. In addition, the IC50 against Full-length human PRMT6 is 0.101 to 1 µM; in test [2] it was less than 0.1 µM.

On to `CN(CCN)Cc1c[nH]nc1-c1ccc(Oc2ccccc2F)cc1` [Compound 259], for which the EC30 in test [1] is less than 3 µM. Moreover, the IC50 (against Full-length human PRMT6; in test [2]) was less than 0.1 µM in each case.

For `CNCCN(C)Cc1c[nH]nc1-c1cc(OC(C)C)cc(C(C)C)c1` [Compound 260], the EC30 in test [1] was in the range of 3.01 to 12 µM. The IC50 was 0.101 to 1 µM against Full-length human PRMT6 and less than 0.1 µM in test [2].

In the case of `CNCCN(C)Cc1c[nH]nc1-c1ccc(Oc2cccc(C#N)c2)cc1` [Compound 261], the EC30 in test [1] was less than 3 µM. For the same compound, the IC50 (against Full-length human PRMT6; in test [2]) was less than 0.1 µM in each case.

As for `CNCCN(C)Cc1c[nH]nc1-c1ccc(Oc2cccc(C(C)C)c2)cc1` [Compound 262], the EC30 in test [1] is less than 3 µM. Moreover, the IC50 (at Full-length human PRMT6; in test [2]) was less than 0.1 µM throughout.

Turning to `CNCCN(C)Cc1c[nH]nc1-c1ccc(Oc2cccc(C(=O)NC)c2)cc1` [Compound 263], in test [1], the EC30 is less than 3 µM. Besides, the IC50 (against Full-length human PRMT6; in test [2]) was less than 0.1 µM each time.

Consider `CNCCN(C)Cc1c[nH]nc1-c1cc(Cl)c(OC(C)C)c(Cl)c1` [Compound 265, N^1-((3-(3,5-dichloro-4-isopropoxyphenyl)-1H-pyrazol-4-yl)methyl)-N^1,N^2-dimethylethane-1,2-diamine], for which, in test [1], the 30% effect concentration (EC30) was less than 3 µM. In addition, the IC50 (against Full-length human PRMT6; in test [2]) was less than 0.1 µM each time.

As to `CNCCN(C)Cc1nn(C)cc1-c1ccc(OCCCOC)cc1` [Compound 266], the EC30 in test [1] was greater than 12 µM. The IC50 on Full-length human PRMT6 is less than 0.1 µM; in test [2], 0.101 to 1 µM.

For `CNCCN(C)Cc1n[nH]cc1-c1ccc(Oc2cccc(C#N)c2)cc1` [Compound 267], the EC30 in test [1] was less than 3 µM. The IC50 (against Full-length human PRMT6; in test [2]) was less than 0.1 µM in each case.

For `CNCCN(C)Cc1n[nH]cc1-c1ccc(Oc2cccc(C(=O)NC)c2)cc1` [Compound 268], the EC30 in test [1] fell in the range of 3.01 to 12 µM. Besides, the IC50 (against Full-length human PRMT6; in test [2]) was less than 0.1 µM throughout.

In the case of `CNCCN(C)Cc1n[nH]cc1-c1ccc(Oc2cccc(F)c2)cc1` [Compound 270], the EC30 in test [1] was less than 3 µM. Besides, the IC50 (against Full-length human PRMT6; in test [2]) was less than 0.1 µM throughout.
